{"source": "patent US11773108B2", "about": "“Indene derivatives useful in treating pain and inflammation” (TARO PHARMACEUTICALS INC., priority 2018, dated 2023)", "data": [{"test": "Metabolism by human liver microsomes", "format": "in vitro ADME", "settings": "human liver microsomes 1 mg/mL protein, 10 μM, in the presence of NADPH, LC-MS/MS", "experimental": "(§1) Representative compounds of the invention (i.e., test compounds) and the positive control, 7-ethoxycoumarin, were prepared as stock solutions at 10 mM in DMSO and eventually diluted to 10 μM in the test plate, with an appropriate amount of acetonitrile and tris HCl buffer. Final DMSO and acetonitrile concentrations were […] and 0.5% respectively. NADPH was prepared in tris HCl buffer to a stock of 10 mM. A frozen aliquot of liver microsomes was retrieved from the freezer (−80° C.) and thawed by placing the tube on wet ice. After thawing, the tubes were gently mixed and the required amount, transferred to tris HCl buffer. Test compounds or positive control were pre-incubated, separately, for 10 minutes, with liver microsomes (1 mg/mL protein), at 37° C., in 100 mM Tris HCl at pH 7.5. After preincubation the reaction was started by adding 1 mM NADPH (pre-equilibrated to 30° C.) and the reaction allowed to proceed for 60 minutes. At 60 minutes, a 50 μL aliquot was removed and quenched with 200 uL of acetonitrile containing a mixture of internal standards (Tolbutamide (500 ng/mL) and Telmistartan (500 ng/mL)) and vortexed then centrifuged at 4000 rpm for 10 minutes (Eppendorf 5810R). The supernatant was transferred to a 96 well plate for LC-MS/MS analysis.\n(§2) An LC-MS/MS method was devised for the test compounds and the control, using a AB Sciex API 4000 system coupled to a NEXAR™ UHPLC (Shimadzu) system. Analytes were separated on a Phenomenex Kinetex C18 column (50×2.1 mm, 5 μm) using a gradient that was appropriate for each compound, at a flow rate of 1 ml/minute, utilizing a mobile phase of 0.1% formic acid in MILLI-Q™ water (A) and 0.1% formic acid in acetonitrile (B). The MS instrument was operated in positive mode (ESI+)/negative (ESI−). The multiple reaction monitoring (MRM) transition for test and control compounds was used for the LC-MS/MS analysis. MRM transitions for control compound 7-ethoxycoumarinm were Quadropole 1: 191.0, Quadropole 3:163.0, dwell time: 75 msec, using curtain gas settings of 5 V, ion-spray voltage of 5500 V, temperature of 50° C. and gas settings for nebulizer and auxiliary set to 30 and 40 psi, respectively. The interface heater was kept on. Entrance potential and collision cell exit potential were varied to tune for a specific compound.\n(§3) Using a suitable LC-MS/MS method, the percentage of drug remaining at 60 minutes ([…]) was assessed by comparing the average analyte to internal standard area ratio at 60 minutes to the average analyte to internal standard area ratio at 0 time control, as a percentage, from a 5 to 10 μL sample injection.\n(§4) According to the above assay, the test compounds listed in Table 7 below were active in the Human liver microsome assay at 10 μM and the % of drug remaining after 60 minutes (PDR60), in the presence of NADPH, was assessed by LC-MS/MS. Average PDR60 for the standard compound, 7-ethoxycoumarin was <=65% in the presence of NADPH. Scoring for the test compounds, in the presence of NADPH, was as follows: “A” represents a PDR60 of 81 to 100%, “B” represents a PDR60 of 61 to 80%, “C” represents a PDR60 of 31 to 60% and “D” represents a PDR60 of 0 to 30%.", "values": [{"compound": "C=C1CC[C@H]2[C@H](CN)[C@@H]([C@@]3(C)Cc4cnn(-c5ccc(OC)cc5)c4C[C@@H]3CO)CC[C@]12C", "note": "[Ia-14, ((5R,6S)-5-((3aS,4R,5S,7aS)-4-(aminomethyl)-7a-methyl-1-methyleneoctahydro-1H-inden-5-yl)-1-(4-methoxyphenyl)-5-methyl-4,5,6,7-tetrahydro-1H-indazol-6-yl)methanol]", "Scoring: % of drug remaining after 60 minutes (PDR60)": "D (“D” represents a PDR60 of 0 to 30%)"}, {"compound": "C=C1CC[C@H]2[C@H](CN)[C@@H]([C@@]3(C)Cc4cn(-c5ccc(F)c(F)c5)nc4C[C@@H]3CO)CC[C@]12C", "note": "[Ia-23, ((5R,6S)-5-((3aS,4R,5S,7aS)-4-(aminomethyl)-7a-methyl-1-methyleneoctahydro-1H-inden-5-yl)-2-(3,4-difluorophenyl)-5-methyl-4,5,6,7-tetrahydro-2H-indazol-6-yl)methanol]", "Scoring: % of drug remaining after 60 minutes (PDR60)": "C (“C” represents a PDR60 of 31 to 60%)"}, {"compound": "C=C1CC[C@H]2[C@H](CN)[C@@H]([C@@]3(C)Cc4cnn(-c5cccc(F)c5)c4C[C@@H]3CO)CC[C@]12C", "note": "[Ia-40, ((5R,6S)-5-((3aS,4R,5S,7aS)-4-(aminomethyl)-7a-methyl-1-methyleneoctahydro-1H-inden-5-yl)-1-(3-fluorophenyl)-5-methyl-4,5,6,7-tetrahydro-1H-indazol-6-yl)methanol]", "Scoring: % of drug remaining after 60 minutes (PDR60)": "D (“D” represents a PDR60 of 0 to 30%)"}, {"compound": "C[C@]1([C@H]2CC[C@]3(C)C(c4ccccc4)=CC[C@H]3[C@@H]2CN)Cc2cn[nH]c2C[C@@H]1CO", "note": "[Ia-6, ((5R,6S)-5-((3aS,6S,7R,7aS)-7-(aminomethyl)-3a-methyl-3-phenyl-3a,4,5,6,7,7a-hexahydro-1H-inden-6-yl)-5-methyl-4,5,6,7-tetrahydro-1H-indazol-6-yl)methanol]", "Scoring: % of drug remaining after 60 minutes (PDR60)": "A (“A” represents a PDR60 of 81 to 100%)"}, {"compound": "C=C1CC[C@H]2[C@H](CN)[C@@H]([C@@]3(C)Cc4cnn(-c5ccc(F)cc5F)c4C[C@@H]3CO)CC[C@]12C", "note": "[Ia-34, ((5R,6S)-5-((3aS,4R,5S,7aS)-4-(aminomethyl)-7a-methyl-1-methyleneoctahydro-1H-inden-5-yl)-1-(2,4-difluorophenyl)-5-methyl-4,5,6,7-tetrahydro-1H-indazol-6-yl)methanol]", "Scoring: % of drug remaining after 60 minutes (PDR60)": "D (“D” represents a PDR60 of 0 to 30%)"}, {"compound": "C=C1CC[C@H]2[C@H](CN)[C@@H]([C@@]3(C)Cc4cn(Cc5ccc(OC)cc5)nc4C[C@@H]3CO)CC[C@]12C", "note": "[Ia-17, ((5R,6S)-5-((3aS,4R,5S,7aS)-4-(aminomethyl)-7a-methyl-1-methyleneoctahydro-1H-inden-5-yl)-2-(4-methoxybenzyl)-5-methyl-4,5,6,7-tetrahydro-2H-indazol-6-yl)methanol]", "Scoring: % of drug remaining after 60 minutes (PDR60)": "C (“C” represents a PDR60 of 31 to 60%)"}, {"compound": "C=C1CC[C@H]2[C@H](CN)[C@@H]([C@@]3(C)Cc4cn(-c5ccc(F)cc5)nc4C[C@@H]3CO)CC[C@]12C", "note": "[Ia-13, ((5R,6S)-5-((3aS,4R,5S,7aS)-4-(aminomethyl)-7a-methyl-1-methyleneoctahydro-1H-inden-5-yl)-2-(4-fluorophenyl)-5-methyl-4,5,6,7-tetrahydro-2H-indazol-6-yl)methanol]", "Scoring: % of drug remaining after 60 minutes (PDR60)": "A (“A” represents a PDR60 of 81 to 100%)"}, {"compound": "C[C@]1([C@H]2CC[C@]3(C)c4[nH]ncc4C[C@H]3[C@@H]2CN)Cc2cn[nH]c2C[C@@H]1CO", "note": "[Ia-7, ((5R,6S)-5-((4aS,5R,6S,8aS)-5-(aminomethyl)-8a-methyl-1,4,4a,5,6,7,8,8a-octahydroindeno[1,2-c]pyrazol-6-yl)-5-methyl-4,5,6,7-tetrahydro-1H-indazol-6-yl)methanol]", "Scoring: % of drug remaining after 60 minutes (PDR60)": "B (“B” represents a PDR60 of 61 to 80%)"}, {"compound": "C=C1CC[C@H]2[C@H](CN)[C@@H]([C@@]3(C)Cc4cn(C5CCC(F)(F)CC5)nc4C[C@@H]3CO)CC[C@]12C", "note": "[Ia-39, ((5R,6S)-5-((3aS,4R,5S,7aS)-4-(aminomethyl)-7a-methyl-1-methyleneoctahydro-1H-inden-5-yl)-2-(4,4-difluorocyclohexyl)-5-methyl-4,5,6,7-tetrahydro-2H-indazol-6-yl)methanol]", "Scoring: % of drug remaining after 60 minutes (PDR60)": "A (“A” represents a PDR60 of 81 to 100%)"}, {"compound": "C=C1CC[C@H]2[C@H](CN)[C@@H]([C@@]3(C)Cc4cn(-c5ccc(Oc6ccc(F)cc6)cc5)nc4C[C@@H]3CO)CC[C@]12C", "note": "[Ia-25, ((5R,6S)-5-((3aS,4R,5S,7aS)-4-(aminomethyl)-7a-methyl-1-methyleneoctahydro-1H-inden-5-yl)-2-(4-(4-fluorophenoxy)phenyl)-5-methyl-4,5,6,7-tetrahydro-2H-indazol-6-yl)methanol]", "Scoring: % of drug remaining after 60 minutes (PDR60)": "B (“B” represents a PDR60 of 61 to 80%)"}, {"compound": "C=C1CC[C@H]2[C@H](CN)[C@@H]([C@@]3(C)Cc4cnn(-c5ccc(F)cn5)c4C[C@@H]3CO)CC[C@]12C", "note": "[Ia-30, ((5R,6S)-5-((3aS,4R,5S,7aS)-4-(aminomethyl)-7a-methyl-1-methyleneoctahydro-1H-inden-5-yl)-1-(5-fluoropyridin-2-yl)-5-methyl-4,5,6,7-tetrahydro-1H-indazol-6-yl)methanol]", "Scoring: % of drug remaining after 60 minutes (PDR60)": "D (“D” represents a PDR60 of 0 to 30%)"}, {"compound": "C=C1CC[C@H]2[C@H](CN)[C@@H]([C@@]3(C)Cc4cnn(-c5ccccc5F)c4C[C@@H]3CO)CC[C@]12C", "note": "[Ia-32, ((5R,6S)-5-((3aS,4R,5S,7aS)-4-(aminomethyl)-7a-methyl-1-methyleneoctahydro-1H-inden-5-yl)-1-(2-fluorophenyl)-5-methyl-4,5,6,7-tetrahydro-1H-indazol-6-yl)methanol]", "Scoring: % of drug remaining after 60 minutes (PDR60)": "D (“D” represents a PDR60 of 0 to 30%)"}, {"compound": "COc1ccc(-n2ncc3c2C[C@H](CO)[C@@](C)([C@H]2CC[C@]4(C)[C@@H](C)CC[C@H]4[C@@H]2CN)C3)cc1", "note": "[Ia-49, ((5R,6S)-5-((1S,3aS,4S,5S,7aR)-4-(aminomethyl)-1,7a-dimethyloctahydro-1H-inden-5-yl)-1-(4-methoxyphenyl)-5-methyl-4,5,6,7-tetrahydro-1H-indazol-6-yl)methanol]", "Scoring: % of drug remaining after 60 minutes (PDR60)": "D (“D” represents a PDR60 of 0 to 30%)"}, {"compound": "C=C1CC[C@H]2[C@H](CN)[C@@H]([C@@]3(C)Cc4cn(Cc5ccc(F)cc5)nc4C[C@@H]3CO)CC[C@]12C", "note": "[Ia-19, ((5R,6S)-5-((3aS,4R,5S,7aS)-4-(aminomethyl)-7a-methyl-1-methyleneoctahydro-1H-inden-5-yl)-2-(4-fluorobenzyl)-5-methyl-4,5,6,7-tetrahydro-2H-indazol-6-yl)methanol]", "Scoring: % of drug remaining after 60 minutes (PDR60)": "B (“B” represents a PDR60 of 61 to 80%)"}]}, {"test": "Metabolism by human liver microsomes", "format": "in vitro ADME", "settings": "standard compound; human liver microsomes, 10 μM, in the presence of NADPH, 60 minutes", "experimental": "as §1, §2, §3, §4", "values": [{"compound": "CCOc1ccc2ccc(=O)oc2c1", "note": "[7-ethoxycoumarin, reference compound]", "Average PDR60": "<= 65%"}]}]}
